Here are results for 2 compounds from publication PMC8541628, “Development of Novel Quinoline-Based Sulfonamides as Selective Cancer-Associated Carbonic Anhydrase Isoform IX Inhibitors” (International Journal of Molecular Sciences, 2021).

The target in one test is hCA XII (Homo sapiens, UniProt O43570). The experiment in a line: stopped flow carbon dioxide hydrase assay, hCA XII. To be noted: for Selectivity ratio I/XII: hCA XII over hCA I; for Selectivity ratio II/XII: hCA XII over hCA II.
For a further test, the system named is MCF-7. The test can be described thus: 72 h MTT anti-proliferative assay under hypoxic conditions, MCF-7. The format is cell-based. The settings on record: Homo sapiens, MCF7, mean ± S.D. of three experiments. Here is the method:
Therefore, QBS 11c and 13b were further screened for their potential in vitro anti-proliferative action against two breast cancer cell lines (MDA-MB-231 and MCF-7) under hypoxic conditions, exploiting a 72 h MTT assay protocol and using Doxorubicin as a positive control drug.
All adopted procedures for the conducted in vitro biological assays were performed as described earlier; CA (stopped-flow), cytotoxicity (MTT [37, 38]), and assessment of apoptotic markers assays, as well as induction of hypoxia with cobalt chloride, and were mentioned in the Supporting Materials.
1. Carbonic anhydrase inhibition assay
16) herein reported have were assayed utilizing an instrument of Applied Photophysics stopped-flow. The enzymes are recombinant proteins prepared in our lab. Phenol red (at a concentration of 0.2 mM) has been used as indicator, working at the absorbance maximum of 557 nm, with 20 mM Hepes (pH 7.5) as buffer, and 20 mM Na2SO4 (for maintaining constant the ionic strength), […]
parameters and inhibition constants. For each inhibitor at least six traces of the initial 5-10% of the reaction have been used for determining the initial velocity . Th e un cat aly zed rates were determined in the same manner and subtracted from the total observed rates. Stock solutions of inhibitor (0.1 mM) were prepared in distilled-deionized water and dilutions up to 0.01 nM were done thereafter with the assay buffer. Inhibitor and enzyme solutions were preincubated together for 15 min at room temperature prior to assay, in order to allow fo r the formation of the E-I complex. […]
Cells were sub-cultured with try psine /EDTA solution, counted with haemocy tometer and plated onto 96-well plates (5000 cells/well) and left overnight to form a semi-confluent […]
monolay er. […] DMSO (100 µl/well) was added to dissolve the formazan crystals with shaking for 10 min after which the absorbance was read at 590 nm against no cell blanks on a FLuo Star Optima microplate reader (BMG technologies, Germany). Cell proliferation was calculated comparing the OD values of the DMSO control wells and those of the samples
For orientation: Formazan colour is commonly taken as a measure of viable cells.

hCA XII, sequence (O43570 25-354): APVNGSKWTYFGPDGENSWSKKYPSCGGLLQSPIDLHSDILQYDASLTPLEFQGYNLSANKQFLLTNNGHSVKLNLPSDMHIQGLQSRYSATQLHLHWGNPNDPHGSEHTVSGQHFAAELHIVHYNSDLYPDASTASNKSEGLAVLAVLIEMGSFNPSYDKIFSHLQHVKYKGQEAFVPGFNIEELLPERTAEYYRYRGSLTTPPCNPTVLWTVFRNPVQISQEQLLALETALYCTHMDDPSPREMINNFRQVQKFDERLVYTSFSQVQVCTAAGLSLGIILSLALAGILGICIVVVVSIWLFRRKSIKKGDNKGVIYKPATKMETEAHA

A word on the Ki: it is a measure of affinity in units of concentration, obtained from inhibition or displacement. A high value points to weaker binding. As usually defined, the IC50 is the concentration at which inhibition is half-maximal. A higher IC50 goes with weaker potency in that assay. With `COc1ccc2nccc(Nc3ccc(S(N)(=O)=O)cc3)c2c1` [13b, 4-((6-methoxyquinolin-4-yl)amino)benzenesulfonamide], at hCA XII, the affinity, expressed as Ki, was 0.0132 µM; the “Selectivity ratio I/XII” value is recorded as 7.0; the “Selectivity ratio II/XII” value is reported as 4.4. In the test on MCF-7, this compound had a half-inhibitory concentration (IC50) of 3.69 ± 0.17 µM.
For `NS(=O)(=O)c1cccc(Nc2ccnc3ccc(Cl)cc23)c1` [11c, 3-((6-chloroquinolin-4-yl)amino)benzenesulfonamide] the same measures were 0.0553 µM, 8.0, 2.8 and 0.43 ± 0.02 µM.
